Row | Compound | melting point
1 | Cc1cccc2c(C=C3C(=O)NN=C3C3CC3)c[nH]c12 [Example 274, 3-Cyclopropyl-4-[(7-methylindol-3-yl)methylene]-2-pyrazolin-5-one] | 286 to 288 °C
2 | Cn1cc(C=C2C(=O)NN=C2c2cccnc2)c2ccccc21 [Example 275, 4-[(1-Methylindol-3-yl)methylene]-3-(3-pyridyl)-2-pyrazolin-5-one] | 230 to 232 °C
3 | CCOC(=O)C1=NNC(=O)C1=Cc1c[nH]c2ccccc12 [Example 283, 3-Ethoxycarbonyl-4-[(indol-3-yl)methylene]-2-pyrazolin-5-one] | 250 °C (dec.)
4 | COC(=O)CCC1=NNC(=O)C1=Cc1c[nH]c2ccccc12 [Example 284, 4-[(Indol-3-yl)methylene]-3-(2-methoxycarbonylethyl)-2-pyrazolin-5-one] | 267 to 269 °C
5 | O=C1NN=C(C2CCC2)C1=Cc1cn(CCCCO)c2ccccc12 [Example 286, 3-Cyclobutyl-4-{[1-(4-hydroxybutyl)indol-3-yl]methylene}-2-pyrazolin-5-one] | 220 to 222 °C
6 | Cn1cc(C=C2C(=O)NN=C2C2CC2)c2ccc(C(=O)O)cc21 [Example 287, 4-[(6-Carboxy-1-methylindol-3-yl)methylene]-3-cyclopropyl-2-pyrazolin-5-one] | 237 to 240 °C (dec.)
7 | COc1ccc2c(c1)c(C=C1C(=O)NN=C1C1CC1)cn2C [Example 288, 3-Cyclopropyl-4-[(5-methoxy-1-methylindol-3-yl)methylene]-2-pyrazolin-5-one] | 236 to 238 °C
8 | Cn1cc(C=C2C(=O)NN=C2c2cnccn2)c2ccccc21 [Example 289, 4-[(1-Methylindol-3-yl)methylene]-3-pyrazinyl-2-pyrazolin-5-one] | 263 to 265 °C
9 | Cc1cccc2c(C=C3C(=O)NN=C3C3CC3)cn(C)c12 [Example 290, 3-Cyclopropyl-4-[(1,7-dimethylindol-3-yl)methylene]-2-pyrazolin-5-one] | 258 to 260 °C
10 | Cn1cc(C=C2C(=O)NN=C2C2CCOC2)c2ccccc21 (stereo not drawn) [Example 291, 4-[(1-Methylindol-3-yl)methylene]-3-(tetrahydrofuran-3-yl)-2-pyrazolin-5-one] | 208 to 210 °C
11 | Cn1cc(C=C2C(=O)NN=C2NC2CC2)c2ccccc21 [Example 292, 3-Cyclopropylamino-4-[(1-methylindol-3-yl)methylene]-2-pyrazolin-5-one] | 160 to 164 °C (dec.)
12 | CC(C)OC1=NNC(=O)C1=Cc1cn(C)c2cc(C(=O)O)ccc12 [Example 293, 4-[(6-Carboxy-1-methylindol-3-yl)methylene]-3-isopropoxy-2-pyrazolin-5-one] | 330 to 332 °C
13 | Cc1cccc2c(C=C3C(=O)NN=C3OC(C)C)cn(C)c12 [Example 294, 4-[(1,7-Dimethylindol-3-yl)methylene]-3-isopropoxy-2-pyrazolin-5-one] | 245 to 247 °C
14 | COc1ccc2c(c1)c(C=C1C(=O)NN=C1OC(C)C)cn2C [Example 295, 3-Isopropoxy-4-[(5-methoxy-1-methylindol-3-yl)methylene]-2-pyrazolin-5-one] | 238 to 239 °C
15 | Cn1cc(C=C2C(=O)NN=C2Nc2ccc(F)cc2)c2ccccc21 [Example 296, 3-(4-Fluorophenylamino)-4-[(1-methylindol-3-yl)methylene]-2-pyrazolin-5-one] | 218 to 219 °C
16 | Cn1cc(C=C2C(=O)NN=C2NC(=O)C(F)(F)F)c2ccccc21 [Example 297, 4-[(1-Methylindol-3-yl)methylene]-3-trifluoroacetamido-2-pyrazolin-5-one] | 252 to 253 °C
17 | Cn1cc(C=C2C(=O)NN=C2CCc2ccc(N)cc2)c2ccccc21 [Example 298, 3-(4-Aminophenylethyl)-4-[(1-methylindol-3-yl)methylene]-2-pyrazolin-5-one] | 192 to 193 °C
18 | Cn1cc(C=C2C(=O)NN=C2N)c2ccccc21 [Example 299, 3-Amino-4-[(1-methylindol-3-yl)methylene]-2-pyrazolin-5-one] | 246 to 247 °C
19 | O=C1NN=C(CCc2ccc(Cl)cc2)C1=Cc1c[nH]c2ccccc12 [Example 300, 3-(4-Chlorophenylethyl)-4-[(indol-3-yl)methylene]-2-pyrazolin-5-one] | 271 to 272 °C
20 | CCOC1=NNC(=O)C1=Cc1cn(C)c2ccccc12 [Example 301, 3-Ethoxy-4-[(1-methylindol-3-yl)methylene]-2-pyrazolin-5-one] | 194 to 196 °C
21 | Cn1cc(C=C2C(=O)NN=C2c2ccno2)c2ccccc21 [Example 302, 3-(5-Isoxazolyl)-4-[(1-methylindol-3-yl)methylene]-2-pyrazolin-5-one] | 271 to 272 °C
22 | Cn1cc(C=C2C(=O)NN=C2C(C)(C)C)c2ccccc21 [Example 303, 4-[(1-Methylindol-3-yl)methylene]-3-tert-butyl-2-pyrazolin-5-one] | 201 to 203 °C
23 | Cn1cc(C=C2C(=O)NN=C2c2cnccn2)c2ccc(C(=O)O)cc21 [Example 304, 4-[(6-Carboxy-1-methylindol-3-yl)methylene]-3-pyrazinyl-2-pyrazolin-5-one] | > 300 °C

Row | Compound | melting point
24 | CC(C)OC1=NNC(=O)C1=Cc1cc2ccccc2[nH]1 [Example 306, 4-[(Indol-2-yl)methylene]-3-isopropoxy-2-pyrazolin-5-one] | 221 to 223 °C
25 | O=C1NN=C(CCc2ccc(O)cc2)C1=Cc1cc2ccccc2[nH]1 [Example 307, 3-(4-Hydroxyphenylethyl)-4-[(indol-2-yl)methylene]-2-pyrazolin-5-one] | 242 to 245 °C
26 | Nc1ccc(CCC2=NNC(=O)C2=Cc2cc3ccccc3[nH]2)cc1 [Example 308, 3-(4-Aminophenylethyl)-4-[(indol-2-yl)methylene]-2-pyrazolin-5-one] | 187 to 189 °C
27 | COC(=O)c1ccc(CCC2=NNC(=O)C2=Cc2cc3ccccc3[nH]2)cc1 [Example 309, 3-(4-Methoxycarbonylphenylethyl]-4-[(indol-2-yl)methylene]-2-pyrazolin-5-one] | 210 to 212 °C
28 | NC(=O)c1ccc(CCC2=NNC(=O)C2=Cc2cc3ccccc3[nH]2)cc1 [Example 310, 3-(4-Carbamoylphenylethyl)-4-[(indol-2-yl)methylene]-2-pyrazolin-5-one] | 263 to 265 °C
29 | O=C1NN=C(C2CC2)C1=Cc1cc2ccccc2[nH]1 [Example 311, 3-Cyclopropyl-4-[(indol-2-yl)methylene]-2-pyrazolin-5-one] | 238 to 240 °C
30 | CN(C)Cc1c(C=C2C(=O)NN=C2C2CC2)[nH]c2ccccc12 [Example 312, 3-Cyclopropyl-4-[(3-dimethylaminomethylindol-2-yl)methylene]-2-pyrazolin-5-one] | 202 °C (dec.)
31 | COc1ccc2[nH]c(C=C3C(=O)NN=C3OC(C)C)cc2c1 [Example 314, 3-Isopropoxy-4-[(5-methoxyindol-2-yl)methylene]-2-pyrazolin-5-one] | 219 to 220 °C
32 | CC(C)OC1=NNC(=O)C1=Cc1cc2ccccc2n1C [Example 315, 3-Isopropoxy-4-[(1-methylindol-2-yl)methylene]-2-pyrazolin-5-one] | 254 to 255 °C
33 | O=C1NN=C(C2CCOC2)C1=Cc1cc2ccccc2[nH]1 (stereo not drawn) [Example 316, 4-[(Indol-2-yl)methylene]-3-(tetrahydrofuran-3-yl)-2-pyrazolin-5-one] | 180 to 183 °C
34 | COc1ccc2[nH]c(C=C3C(=O)NN=C3C3CC3)cc2c1 [Example 317, 3-Cyclopropyl-4-[(5-methoxyindol-2-yl)methylene]-2-pyrazolin-5-one] | 221 to 224 °C
35 | O=C1NN=C(C2CC2)C1=Cc1cc2cc([N+](=O)[O-])ccc2[nH]1 [Example 318, 3-Cyclopropyl-4-[(5-nitroindol-2-yl)methylene]-2-pyrazolin-5-one] | 316 to 320 °C
36 | O=C1NN=C(CCc2ccc(C(=O)O)cc2)C1=Cc1cc2ccccc2[nH]1 [Example 320, 3-(4-Carboxyphenylethyl)-4-[(indol-2-yl)methylene]-2-pyrazolin-5-one] | > 300 °C
37 | O=C1NN=C(c2ccccc2)C1=Cc1cc2ccccc2[nH]1 [Example 321, 4-[(Indol-2-yl)methylene]-3-phenyl-2-pyrazolin-5-one] | 210 to 211 °C
38 | Cc1c(C=C2C(=O)NN=C2OC(C)C)[nH]c2ccccc12 [Example 322, 3-Isopropoxy-4-[(3-methylindol-2-yl)methylene]-2-pyrazolin-5-one] | 241 to 243 °C
39 | COC(=O)C(Cc1c(C=C2C(=O)NN=C2OC(C)C)[nH]c2ccccc12)NC(C)=O (stereo not drawn) [Example 323, 3-Isopropoxy-4-{[3-(2-methoxycarbonyl-2-acetamidoethyl)indol-2-yl]methylene}-2-pyrazolin-5-one] | 205 to 206 °C
40 | CCOC1=NNC(=O)C1=Cc1cc2ccccc2[nH]1 [Example 324, 3-Ethoxy-4-[(indol-2-yl)methylene]-2-pyrazolin-5-one] | 265 to 267 °C
41 | COc1ccc2[nH]c(C=C3C(=O)NN=C3c3cnccn3)cc2c1 [Example 327, 4-[(5-Methoxyindol-2-yl)methylene]-3-pyrazinyl-2-pyrazolin-5-one] | 272 to 274 °C
42 | COc1ccc2[nH]c(C=C3C(=O)NN=C3c3ccccn3)cc2c1 [Example 328, 4-[(5-Methoxyindol-2-yl)methylene]-3-(2-pyridyl)-2-pyrazolin-5-one] | 170 to 172 °C
43 | CCOC1=NNC(=O)C1=Cc1cc2c([nH]1)CCC=C2Cl [Example 329, 4-[(4-Chloro-6,7-dihydroindol-2-yl)methylene]-3-ethoxy-2-pyrazolin-5-one] | 177 to 203 °C
44 | O=C1NN=C(c2cnccn2)C1=Cc1cc2c([nH]1)CCC=C2Cl [Example 330, 4-[(4-Chloro-6,7-dihydroindol-2-yl)methylene]-3-pyrazinyl-2-pyrazolin-5-one] | 206 to 209 °C
45 | CCOC1=NNC(=O)C1=Cc1[nH]c2ccccc2c1CN(C)C [Example 332, 4-[(3-Dimethylaminomethylindol-2-yl)methylene]-3-ethoxy-2-pyrazolin-5-one] | 185 to 187 °C

Reference: patent publication US7060822B1, “2-pyrazolin-5-ones” (Abbott GmbH & Co. KG, priority 1999, dated 2006)
